Measurements as given in US8846909B2, “Bicyclic heteroaryl kinase inhibitors and methods of use” (University of Rochester, priority 2010, dated 2014).

Target: T1, MLK3 (Homo sapiens, UniProt Q16584)
T1 construct: purchased Dundee DU8313
Assay: Radiometric filter plate MLK3 assay; further: 2 µM cold ATP (Km)
Format: biochemical
Conditions: read-out: MK3 IC50
Protocol: After a twenty minute incubation, the reactions were washed through filter plates and read on a scintillation counter. Results are shown in Table 10 below, in which +++ indicates ≦0.1 μM, ++ indicates >0.1 μM and ≦1 μM, and + indicates >1 μM.

T1 sequence (Q16584 whole entry): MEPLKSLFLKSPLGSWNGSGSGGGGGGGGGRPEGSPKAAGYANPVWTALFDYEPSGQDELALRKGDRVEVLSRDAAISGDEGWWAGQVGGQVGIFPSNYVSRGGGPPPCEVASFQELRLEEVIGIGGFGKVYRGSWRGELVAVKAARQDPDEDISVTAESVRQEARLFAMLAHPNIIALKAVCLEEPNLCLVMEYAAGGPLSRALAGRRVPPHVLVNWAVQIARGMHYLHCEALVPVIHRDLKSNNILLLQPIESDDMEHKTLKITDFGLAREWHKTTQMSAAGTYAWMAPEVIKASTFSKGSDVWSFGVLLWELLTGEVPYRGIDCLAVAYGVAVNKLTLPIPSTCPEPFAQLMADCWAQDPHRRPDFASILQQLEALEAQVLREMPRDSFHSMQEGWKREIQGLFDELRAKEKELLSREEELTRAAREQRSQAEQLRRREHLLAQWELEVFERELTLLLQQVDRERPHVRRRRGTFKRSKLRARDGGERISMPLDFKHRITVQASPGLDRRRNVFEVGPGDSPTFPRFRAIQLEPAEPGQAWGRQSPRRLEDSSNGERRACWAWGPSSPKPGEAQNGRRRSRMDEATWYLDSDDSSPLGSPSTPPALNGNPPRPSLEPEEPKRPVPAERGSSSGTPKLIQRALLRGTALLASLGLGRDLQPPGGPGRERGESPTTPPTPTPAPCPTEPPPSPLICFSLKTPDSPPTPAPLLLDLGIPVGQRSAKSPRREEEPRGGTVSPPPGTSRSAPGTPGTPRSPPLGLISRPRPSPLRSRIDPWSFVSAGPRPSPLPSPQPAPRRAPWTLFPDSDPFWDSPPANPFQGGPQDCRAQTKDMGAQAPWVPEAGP

IC50 [nM]	Compound
> 1000	Cc1cc2cc(-n3c(=O)[nH]c4ncc(-c5ccncc5)nc43)ccc2[nH]1 [Example 85, 1-(2-methyl-1H-indol-5-yl)-6-(pyridin-4-yl)-1H-imidazo[4,5-b]pyrazin-2(3H)-one]
100 to 1000	c1cc2cc(-c3c[nH]c4ncc(-c5ccc(NCCN6CCCC6)nc5)cc34)ccc2[nH]1 [Example 31, 5-(3-(1H-indol-5-yl)-1H-pyrrolo[2,3-b]pyridin-5-yl)-N-(2-(pyrrolidin-1-yl)ethyl)pyridin-2-amine]
< 100	Nc1ccc(-c2cnc3[nH]cc(-c4ccc5[nH]ccc5c4)c3c2)cc1 [Example 8, 4-(3-(1H-indol-5-yl)-1H-pyrrolo[2,3-b]pyridin-5-yl)aniline]
> 1000	COc1ccc(-n2c(=O)[nH]c3ncc(-c4ccncc4)nc32)cc1 [Example 71, 1-(4-methoxyphenyl)-6-(pyridin-4-yl)-1H-imidazo[4,5-b]pyrazin-2(3H)-one]
> 1000	COc1ccc(-c2cnc3[nH]c(=O)n(-c4ccc5[nH]ccc5c4)c3n2)cc1F [Example 49, 6-(3-fluoro-4-methoxyphenyl)-1-(1H-indol-5-yl)-1H-imidazo[4,5-b]pyrazin-2(3H)-one]
< 100	O=C(CC1CC1)N1CCN(Cc2ccc(-c3cnc4[nH]cc(-c5ccc6[nH]ccc6c5)c4c3)cc2)CC1 [Example 193]
> 1000	COc1ccc(-n2c(=O)[nH]c3ncc(-c4ccc(O)cc4)nc32)cc1 [Example 70, 6-(4-hydroxyphenyl)-1-(4-methoxyphenyl)-1H-imidazo[4,5-b]pyrazin-2(3H)-one]
> 1000	O=c1[nH]c2ncc(-c3ccc(N4CCOCC4)cc3)nc2n1-c1ccc2scnc2c1 [Example 100, 1-(benzo[d]thiazol-5-yl)-6-(4-morpholinophenyl)-1H-imidazo[4,5-b]pyrazin-2(3H)-one]
> 1000	COc1cc(-c2cnc3c(c2)C(=Cc2ccccc2)C(=O)N3)cc(OC)c1OC [Example 130, 3-benzylidene-5-(3,4,5-trimethoxy-phenyl)-1,3-dihydro-pyrrolo[2,3-b]pyridin-2-one]
< 100	COc1cc(-c2cnc3[nH]cc(-c4ccc5[nH]ccc5c4)c3n2)ccc1N [Example 38, 4-(7-(1H-indol-5-yl)-5H-pyrrolo[3,2-b]pyrazin-2-yl)-2-methoxyaniline]
> 1000	O=c1[nH]c2ncc(-c3cc(F)cc(F)c3)nc2n1-c1ccc2[nH]ccc2c1 [Example 61, 6-(3,5-difluorophenyl)-1-(1H-indol-5-yl)-1H-imidazo[4,5-b]pyrazin-2(3H)-one]
> 1000	Nc1ccc(-c2cnc3[nH]cc(-c4ccc(F)c(Cl)c4)c3c2)cn1 [Example 29, 5-(3-(3-chloro-4-fluorophenyl)-1H-pyrrolo[2,3-b]pyridin-5-yl)pyridin-2-amine]
< 100	COc1ccc(-c2cnc3[nH]cc(-c4ccc5[nH]ccc5c4)c3n2)cc1OC [Example 37, 2-(3,4-dimethoxyphenyl)-7-(1H-indol-5-yl)-5H-pyrrolo[3,2-b]pyrazine]
> 1000	O=c1[nH]c2ncc(-c3ccncc3)nc2n1C1CCCC1 [Example 77, 1-cyclopentyl-6-(pyridin-4-yl)-1H-imidazo[4,5-b]pyrazin-2(3H)-one]
< 100	COc1cc(-c2cnc3[nH]cc(-c4ccc(N(C)C)nc4)c3c2)cc(OC)c1OC [Example 19, N,N-dimethyl-5-(5-(3,4,5-trimethoxyphenyl)-1H-pyrrolo[2,3-b]pyridin-3-yl)pyridin-2-amine]
< 100	CN1CCN(Cc2cccc(-c3cnc4[nH]cc(-c5ccc(C(N)=O)cc5)c4c3)c2)CC1 [Example 156, 4-{5-[3-(4-methyl-piperazin-1-ylmethyl)-phenyl]-1H-pyrrolo[2,3-b]pyridin-3-yl}-benzamide]
> 1000	O=c1[nH]c2ncc(-c3ccc(O)cc3)nc2n1-c1ccc2cn[nH]c2c1 [Example 92, 6-(4-hydroxyphenyl)-1-(1H-indazol-6-yl)-1H-imidazo[4,5-b]pyrazin-2(3H)-one]
< 100	CN1CCN(Cc2ccc(-c3cnc4[nH]cc(-c5ccc6[nH]ccc6c5)c4c3)cc2)CC1=O [Example 141, 4-{4-[3-(1H-indol-5-yl)-1H-pyrrolo[2,3-b]pyridin-5-yl]-benzyl}-1-methyl-piperazin-2-one]
< 100	CC(=O)N1CCN(C(=O)c2ccc(-c3cnc4[nH]cc(-c5ccc6[nH]ccc6c5)c4c3)cc2)CC1 [Example 146, 1-(4-{4-[3-(1H-indol-5-yl)-1H-pyrrolo[2,3-b]pyridin-5-yl]-benzoyl}piperazin-1-yl)-ethanone]
> 1000	COc1cc(-c2nc3c(nc2Cl)[nH]c(=O)n3CC2CC2)cc(OC)c1OC [Example 119, 5-chloro-1-(cyclopropylmethyl)-6-(3,4,5-trimethoxyphenyl)-1H-imidazo[4,5-b]pyrazin-2(3H)-one]
< 100	CC(=O)N1CCN(Cc2ccc(-c3cnc4[nH]cc(-c5ccc(C(N)=O)cc5)c4c3)cc2)CC1 [Example 157, 4-{5-[4-(4-acetyl-piperazin-1-ylmethyl)-phenyl]-1H-pyrrolo[2,3-b]pyridin-3-yl}-benzamide]

IC50 [nM]	Compound
< 100	CN(C)Cc1ccc(-c2cnc3[nH]cc(-c4ccc5[nH]ccc5c4)c3c2)cc1 [Example 33, 1-(4-(3-(1H-indol-5-yl)-1H-pyrrolo[2,3-b]pyridin-5-yl)phenyl)-N,N-dimethylmethanamine]
> 1000	COc1cc(-c2cnc3c(c2)C(=Cc2cccc(C(N)=O)c2)C(=O)N3)cc(OC)c1OC [Example 132, 3-[2-oxo-5-(3,4,5-trimethoxy-phenyl)-1,2-dihydro-pyrrolo[2,3-b]pyridin-3-ylidenemethyl]-benzamide]
> 1000	COc1cc(-c2cnc3[nH]c(=O)n(CC4CC4)c3c2)cc(OC)c1OC [Example 125, 1-(cyclopropylmethyl)-6-(3,4,5-trimethoxyphenyl)-1H-imidazo[4,5-b]pyridin-2(3H)-one]
> 1000	COc1cc(-c2cnc3c(c2)C(CC2CC2)(CC2CC2)C(=O)N3)cc(OC)c1OC [Example 122, 3,3-bis(cyclopropylmethyl)-5-(3,4,5-trimethoxyphenyl)-1H-pyrrolo[2,3-b]pyridin-2(3H)-one]
> 1000	COc1cc(-c2cnc3c(c2)C(=Cc2cccc(C#N)c2)C(=O)N3)cc(OC)c1OC (mixture of isomers) [Example 134, 3-[2-oxo-5-(3,4,5-trimethoxy-phenyl)-1,2-dihydro-pyrrolo[2,3-b]pyridin-3-ylidenemethyl]-benzonitrile]
< 100	COc1cc(-c2cnc3[nH]cc(-c4ccc(C(N)=O)cc4)c3c2)cc(OC)c1OC [Example 25, 4-(5-(3,4,5-trimethoxyphenyl)-1H-pyrrolo[2,3-b]pyridin-3-yl)benzamide]
> 1000	COc1ccc(-c2cnc3[nH]c(=O)n(C4CCCC4)c3n2)cc1OC [Example 75, 1-cyclopentyl-6-(3,4-dimethoxyphenyl)-1H-imidazo[4,5-b]pyrazin-2(3H)-one]
100 to 1000	COc1cc(-c2cnc3c(c2)C(=Cc2ccc(C(N)=O)cc2)C(=O)N3)cc(OC)c1OC [Example 131, 4-[2-oxo-5-(3,4,5-trimethoxy-phenyl)-1,2-dihydro-pyrrolo[2,3-b]pyridin-3-ylidenemethyl]-benzamide]
< 100	CC(=O)Nc1ccc(-c2cnc3[nH]cc(-c4ccc5[nH]ccc5c4)c3c2)cc1 [Example 3, N-(4-(3-(1H-indol-5-yl)-1H-pyrrolo[2,3-b]pyridin-5-yl)phenyl)acetamide]
< 100	CN1CCN(Cc2ccc(-c3cnc4[nH]cc(-c5ccc6nccc(O)c6c5)c4c3)cc2)CC1 [Example 200]
> 1000	O=c1[nH]c2ncc(-c3ccc(N4CCOCC4)cc3)nc2n1-c1ccc2[nH]ncc2c1 [Example 89, 1-(1H-indazol-5-yl)-6-(4-morpholinophenyl)-1H-imidazo[4,5-b]pyrazin-2(3H)-one]
< 100	COc1cc(-c2cnc3[nH]cc(-c4ccc5c(ccn5C)c4)c3c2)cc(OC)c1OC [Example 24, 3-(1-methyl-1H-indol-5-yl)-5-(3,4,5-trimethoxyphenyl)-1H-pyrrolo[2,3-b]pyridine]
> 1000	COc1cc(-c2cnc3c(c2)C(Cc2cccnc2)C(=O)N3)cc(OC)c1OC (stereo not drawn) [Example 135, 3-pyridin-3-ylmethyl-5-(3,4,5-trimethoxy-phenyl)-1,3-dihydro-pyrrolo[2,3-b]pyridin-2-one]
< 100	CN1CCN(c2cc(-c3cnc4[nH]cc(-c5ccc6[nH]ccc6c5)c4c3)ccn2)CC1 [Example 7, 3-(1H-indol-5-yl)-5-(2-(4-methylpiperazin-1-yl)pyridin-4-yl)-1H-pyrrolo[2,3-b]pyridine]
< 100	CC(C)C(=O)N1CCN(Cc2ccc(-c3cnc4[nH]cc(-c5ccc6[nH]ccc6c5)c4c3)cc2)CC1 [Example 186]
< 100	CS(=O)(=O)N1CCN(Cc2ccc(-c3cnc4[nH]cc(-c5ccc6[nH]ccc6c5)c4c3)cc2)CC1 [Example 190]
> 1000	COc1ccc(-n2c(=O)[nH]c3ncc(-c4ccc(OC)c(OC)c4)nc32)cc1 [Example 69, 6-(3,4-dimethoxyphenyl)-1-(4-methoxyphenyl)-1H-imidazo[4,5-b]pyrazin-2(3H)-one]
< 100	CC(C)(C)OC(=O)N1CCN(Cc2ccc(-c3cnc4[nH]cc(-c5ccc6[nH]ccc6c5)c4c3)cc2)CC1 [Example 144, 4-{4-[3-(1H-indol-5-yl)-1H-pyrrolo[2,3-b]pyridin-5-yl]-benzyl}-piperazine-1-carboxylic acid tert-butyl ester]
100 to 1000	COc1cc(-c2cnc3c(c2)C(CC2CC2)C(=O)N3)cc(OC)c1OC (stereo not drawn) [Example 123, 3-(cyclopropylmethyl)-5-(3,4,5-trimethoxyphenyl)-1H-pyrrolo[2,3-b]pyridin-2(3H)-one]
> 1000	COc1cc(-c2cnc3c(c2)C(Cc2ccccc2)C(=O)N3)cc(OC)c1OC (stereo not drawn) [Example 137, 3-benzyl-5-(3,4,5-trimethoxy-phenyl)-1,3-dihydro-pyrrolo[2,3-b]pyridin-2-one]
> 1000	O=c1[nH]c2ncc(-c3ccncc3)nc2n1-c1ccc2scnc2c1 [Example 98, 1-(benzo[d]thiazol-5-yl)-6-(pyridin-4-yl)-1H-imidazo[4,5-b]pyrazin-2(3H)-one]
